{"source": "patent US7217527B2", "about": "“Assay for phosphodiesterase function” (Vanderbilt University, priority 2003, dated 2007)", "key": {"GAF domains of PDE5": {"molecular_target": "GAF domains of PDE5 (Homo sapiens, UniProt O76074)", "details": "cited from earlier work"}, "[1]": {"test_system": "second peak of cGMP PDE activity (human lung extract)", "details": "40 pmol/ml sildenafil; 0.4 μM [^3H]cGMP substrate", "method": "PKG activity was determined in the presence of 2 μM cGMP as described in Materials and Methods.\nPDE activity was determined by a modified assay (Martins et al., 1982) as described earlier (Gopal et al., 2001) using 0.4 μM [^3H]cGMP as substrate. PKG activity was determined in the presence of 2 μM cGMP as described (Gopal et al., 2001)."}, "PDE5": {"molecular_target": "PDE5 (Homo sapiens, UniProt O76074)", "details": "read-out: Km for the catalytic site; cited from earlier work"}, "crude human lung extract": {"molecular_target": "T1, crude human lung extract (Homo sapiens, UniProt O76074)", "T1 construct": "from tissue; host or cells: human lung (explanted lung of transplant patients), supernatant fractionated on DEAE-Sephacel", "assay": "[^3H]sildenafil binding in DEAE-Sephacel fractions of crude human lung extract (FIG. 5)", "details": "16 nM [^3H]sildenafil", "method": "5 g human lung was thawed, cut into small pieces and homogenized in 80 ml 2.5 mM potassium phosphate (pH 6.8) containing 0.25 mM EDTA, 0.025 mM IBMX, 4 mM β-mercaptoethanol, and 1 mM CaCl2 with a Cuisinart apparatus (high speed) using 3 bursts of 15 sec each at 4° C. After centrifugation in a Beckman JA-20 rotor for 30 min at 10,000×g, 72 ml supernatant was applied to a DEAE-Sephacel column (0.9×10 cm) equilibrated in KPM and the column was washed with 20 ml of KPM containing 20 mM NaCl and 1 mM CaCl2. The column was developed with a linear (20–280 mM) NaCl gradient in KPM containing 1 mM CaCl2. […] PKG activity was determined in the presence of 2 μM cGMP as described in Materials and Methods."}, "[2]": {"molecular_target": "T2, isolated regulatory domain of PDE5 (Homo sapiens, UniProt O76074)", "T2 construct": "made in house", "type": "binding", "procedure": "Reactions were incubated on an ice water bath for 20 min. […] Tubes were each rinsed with 3 ml of the same buffer and filtered. The filter membranes were removed and placed into slots of a scintillation vial box for subsequent drying. The vial box was placed into a glassware dryer for 10 min, and dried papers were transferred to 6 ml scintillation vials. Five ml non-aqueous scintillant was added, and papers were counted in a scintillation counter."}}, "data": [{"smiles": "CCCc1nn(C)c2c(=O)[nH]c(-c3cc(S(=O)(=O)N4CCN(C)CC4)ccc3OCC)nc12", "note": "[sildenafil]", "values": [{"measurement": "competition with [^3H]cGMP for binding to the GAF domains of PDE5", "setting": "GAF domains of PDE5; even at high concentrations (Turko et al., 1999)", "result": "does not compete"}, {"measurement": "inhibition of second peak of cGMP PDE activity", "setting": "[1]", "result": "not inhibited"}]}, {"smiles": "Nc1nc2c(ncn2[C@@H]2O[C@@H]3COP(=O)(O)O[C@H]3[C@H]2O)c(=O)[nH]1", "note": "[cGMP]", "values": [{"measurement": "Km", "setting": "PDE5", "result": 5, "unit": "µM"}, {"measurement": "Kd", "setting": "GAF domains of PDE5", "result": 0.2, "unit": "µM"}]}, {"smiles": "CCCc1nn(C)c2c(=O)[nH]c(-c3cc(S(=O)(=O)N4CCN(C)CC4)ccc3OCC)nc12", "note": "[[^3H]sildenafil]", "values": [{"measurement": "[^3H]sildenafil-binding activity other than the PDE5 peak", "setting": "crude human lung extract", "result": "no other significant peak"}, {"measurement": "binding to isolated regulatory domain of PDE5", "setting": "[2]", "result": "did not detectably bind"}]}]}
